Measured values as given in US10208074B2, “Pyrazole compounds and method for making and using the compounds” (Rigel Pharmaceuticals, Inc., priority 2015, dated 2019).
Counter-ions that a name gives are not always drawn. Like-named read-outs stand apart in the source and are kept apart here.

Experiments:
IL-23 (p19/p40) = experiment: IL23-p19 ELISA, Dendritic, LPS (compound screening using DC cells); type: cell-based, Human; settings: PBMC-derived DC cells, IFNγ primed, LPS 1 μg/ml, 18 hours, 10 pt, read-out: IL23-p19 ELISA, Dendritic, LPS, 10 pt, EC50
Summary of the method: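 Human PBMC-derived dendritic cells (7 d GM-CSF 100 ng/ml + IL-4 20 ng/ml), primed 24 h with IFNγ 50 ng/ml, pre-incubated 1 h with compound, then stimulated 18 h with LPS 1 μg/ml. Supernatant IL-23 measured by p19-capture/p40-detection chemiluminescent ELISA; CellTiter Glo checks cytotoxicity.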

IL-23p19 = experiment: LPS induced IL23p19 in THP-1 cells (with IFNγ primed) assay; type: cell-based, Human; settings: THP-1 cells, IFNγ primed, LPS 1 ug/mL, 18 hours, 10 pt, read-out: IL23-p19 ELISA, THP1-IFNy, LPS, 10 pt EC50
Summary of the method: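 THP-1 cells primed ~18 h with IFNγ (50 ng/mL), pre-incubated 1 h with compound at 37 °C, then stimulated 18 h with LPS (1 ug/mL final). Supernatant IL-23p19 measured by sandwich ELISA with chemiluminescent read-out; EC50 from curve fitting. Toxicity checked on the remaining cells by Cell Titer Glo.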

| Structure (SMILES) | EC50 (IL-23 (p19/p40); Homo sapiens, 18 h) [nM] | EC50 (IL-23p19; Homo sapiens, THP-1, 18 h) [nM] | EC50 (IL-23 (p19/p40); phosphate) [nM] | EC50 (IL-23p19; phosphate) [nM] |
| --- | --- | --- | --- | --- |
| O=C(Nc1cn(C2CNC2)nc1-c1ccccn1)c1ccc(-c2cn[nH]c2)o1 [Compound I-78, N-{1-(Azetidin-3-yl)-3-(pyridine-2-yl)-1H-pyrazol-4-yl}-5-(1H-pyrazol-4-yl)furan-2-carboxamide, TFA salt] | 105 | 78.4 |  |  |
| Cn1cc(NC(=O)c2ccc(-c3cnn(COP(=O)(OC(C)(C)C)OC(C)(C)C)c3)o2)c(-c2ccccn2)n1 [Compound I-80, Di-tert-butyl-[[4-{4-(5-((1-methyl-3-(pyridine-2-yl)-1H-pyrazol-4-yl)carbamoyl)furan-2-yl)-1H-pyrazol-1-yl}methyl] phosphate] | 2060 | 2220 |  |  |
| Cn1cc(NC(=O)c2ccc(-c3cnn(COP(=O)(O)O)c3)o2)c(-c2ccccn2)n1 [Compound I-81, [4-{5-((1-Methyl-3-(pyridine-2-yl)-1H-pyrazol-4-yl)carbamoyl)furan-2yl}-1H-pyrazol-1-yl]methyl dihydrogen phosphate] | 960 | 153 |  |  |
| Cn1cc(NC(=O)c2ccc(-c3cnn(COP(=O)(O)O)c3)o2)c(-c2ccccn2)n1 [Compound I-82, Sodium [4-{5-((1-Methyl-3-(pyridine-2-yl)-1H-pyrazol-4-yl)carbamoyl)furan-2-yl}-1H-pyrazol-1-yl]methyl phosphate] |  |  | 780 | 205 |
| CC(=O)N1CC(n2cc(NC(=O)c3ccc(-c4cn[nH]c4)o3)c(-c3ccccn3)n2)C1 [Compound I-83, N-{1-(1-Acetylazetidin-3-yl)-3-(pyridine-2-yl)-1H-pyrazol-4-yl}-5-(1H-pyrazol-4-yl)furan-2-carboxamide, free base] | 93.2 | 34.8 |  |  |
| CC(C)(C)NC(=O)N1CC(n2cc(NC(=O)c3ccc(-c4cn[nH]c4)o3)c(-c3ccccn3)n2)C1 [Compound I-84, 3-[4-{5-(1H-Pyrazol-4-yl)furan-2-carboxamido}-3-(pyridine-2-yl)-1H-pyrazol-1-yl]-N-(tert-butyl)azetidine-1-carboxamide, free base] | 97.7 | 42.3 |  |  |
| CCCNC(=O)N1CC(n2cc(NC(=O)c3ccc(-c4cn[nH]c4)o3)c(-c3ccccn3)n2)C1 [Compound I-86, 3-[4-{5-(1H-Pyrazol-4-yl)furan-2-carboxamido}-3-(pyridine-2-yl)-1H-pyrazol-1-yl]-N-propylazetidine-1-carboxamide, free base] | 63.7 | 61.4 |  |  |
| O=C(Nc1cn(C2CN(C(=O)NC3CC3)C2)nc1-c1ccccn1)c1ccc(-c2cn[nH]c2)o1 [Compound I-87, 3-[4-{5-(1H-Pyrazol-4-yl)furan-2-carboxamido}-3-(pyridine-2-yl)-1H-pyrazol-1-yl]-N-cyclopropylazetidine-1-carboxamide, formate salt] | 105 | 43.3 |  |  |
| CN1CC(n2cc(NC(=O)c3ccc(-c4cn[nH]c4)o3)c(-c3ccccn3)n2)C1 [Compound I-101, N-{1-(1-Methylazetidin-3-yl)-3-(pyridine-2-yl)-1H-pyrazol-4-yl}-5-(1H-pyrazol-4-yl)furan-2-carboxamide, formate salt] | 50.1 | 14.3 |  |  |
| O=C(Nc1cn(C2CN(C(=O)C3CC3(F)F)C2)nc1-c1ccccn1)c1ccc(-c2cn[nH]c2)o1 (stereo not drawn) [Compound I-103, N-[1-{1-(2,2-difluorocyclopropane-1-carbonyl)azetidin-3-yl}-3-(pyridine-2-yl)-1H-pyrazol-4-yl]-5-(1H-pyrazol-4-yl)furan-2-carboxamide, formate salt] | 55.4 | 31 |  |  |
| CN1CCN(c2ccc(-c3nn(C)cc3NC(=O)c3ccc(-c4cn[nH]c4)o3)nc2)CC1 [Compound I-106, N-(1-methyl-3-(5-(4-methylpiperazin-1-yl)pyridin-2-yl)-1H-pyrazol-4-yl)-5-(1H-pyrazol-4-yl)furan-2-carboxamide] | 1220 | 18900 |  |  |
| Cn1cc(NC(=O)c2ccc(-c3cn[nH]c3)o2)c(-c2ccc(OCC(C)(C)O)cn2)n1 [Compound I-107, N-(3-(5-(2-hydroxy-2-methylpropoxy)pyridin-2-yl)-1-methyl-1H-pyrazol-4-yl)-5-(1H-pyrazol-4-yl)furan-2-carboxamide] | 305 | 860 |  |  |
| Cn1cc(NC(=O)c2ccc(-c3cn[nH]c3)o2)c(-c2ccc(OC3COC3)cn2)n1 [Compound I-108, N-(1-methyl-3-(5-(oxetan-3-yloxy)pyridin-2-yl)-1H-pyrazol-4-yl)-5-(1H-pyrazol-4-yl)furan-2-carboxamide] | 730 | 491 |  |  |
| CC(C)n1cc(NC(=O)c2ccc(-c3cn[nH]c3)o2)c(-c2ccccn2)n1 [Compound I-110, N-(1-isopropyl-3-(pyridin-2-yl)-1H-pyrazol-4-yl)-5-(1H-pyrazol-4-yl)furan-2-carboxamide] | 388 | 279 |  |  |
| CN1CCN(CCn2cc(NC(=O)c3ccc(-c4cn[nH]c4)o3)c(-c3ccccn3)n2)CC1 [Compound I-112, N-(1-(2-(4-methylpiperazin-1-yl)ethyl)-3-(pyridin-2-yl)-1H-pyrazol-4-yl)-5-(1H-pyrazol-4-yl)furan-2-carboxamide] | 40.7 | 42.8 |  |  |
| CC(C)O[C@H]1C[C@@H](n2cc(NC(=O)c3ccc(-c4cn[nH]c4)o3)c(-c3ccccn3)n2)C1 [Compound I-114, N-(1-((1s,3s)-3-isopropoxycyclobutyl)-3-(pyridin-2-yl)-1H-pyrazol-4-yl)-5-(1H-pyrazol-4-yl)furan-2-carboxamide] | 61.6 | 49.3 |  |  |
| O=C(Nc1cn(C(F)F)nc1-c1ccccn1)c1ccc(-c2cn[nH]c2)o1 [Compound I-115, N-(1-(difluoromethyl)-3-(pyridin-2-yl)-1H-pyrazol-4-yl)-5-(1H-pyrazol-4-yl)furan-2-carboxamide] | 365 | 91.3 |  |  |
| CCO[C@H]1C[C@@H](n2cc(NC(=O)c3ccc(-c4cn[nH]c4)o3)c(-c3cccc(C(F)(F)F)n3)n2)C1 [Compound I-116, N-(1-((1s,3s)-3-ethoxycyclobutyl)-3-(6-(trifluoromethyl)pyridin-2-yl)-1H-pyrazol-4-yl)-5-(1H-pyrazol-4-yl)furan-2-carboxamide] | 218 | 226 |  |  |

The remaining compounds from weak to strong by EC50 (IL-23 (p19/p40); Homo sapiens, 18 h), led by results:

| EC50 (IL-23 (p19/p40); Homo sapiens, 18 h) [nM] | EC50 (IL-23p19; Homo sapiens, THP-1, 18 h) [nM] | EC50 (IL-23 (p19/p40); phosphate) [nM] | EC50 (IL-23p19; phosphate) [nM] | Structure (SMILES) |
| --- | --- | --- | --- | --- |
| 33.8 | 67.8 |  |  | CC(C)C(=O)N1CC(n2cc(NC(=O)c3ccc(-c4cn[nH]c4)o3)c(-c3ccccn3)n2)C1 [Compound I-95, N-[1-{1-Isobutyrylazetidin-3-yl}-3-(pyridine-2-yl)-1H-pyrazol-4-yl]-5-(1H-pyrazol-4-yl)furan-2-carboxamide, formate salt] |
| 32.9 | 36.2 |  |  | O=C(Nc1cn(C2CN(CC(F)(F)F)C2)nc1-c1ccccn1)c1ccc(-c2cn[nH]c2)o1 [Compound I-97, TFA salt] |
| 26.8 | 29.1 |  |  | O=C(Nc1cn(CCN2CCOCC2)nc1-c1ccccn1)c1ccc(-c2cn[nH]c2)o1 [Compound I-111, N-(1-(2-morpholinoethyl)-3-(pyridin-2-yl)-1H-pyrazol-4-yl)-5-(1H-pyrazol-4-yl)furan-2-carboxamide] |
| 23.1 | 16.6 |  |  | O=C(Nc1cn(C2CN(C(=O)C3CC3)C2)nc1-c1ccccn1)c1ccc(-c2cn[nH]c2)o1 [Compound I-89, N-[1-{1-(Cyclopropanecarbonyl)azetidin-3-yl}-3-(pyridine-2-yl)-1H-pyrazol-4-yl]-5-(1H-pyrazol-4-yl)furan-2-carboxamide, formate salt] |
| 22.1 | 104 |  |  | COc1ccc(-c2nn(C)cc2NC(=O)c2ccc(-c3cn[nH]c3)o2)nc1 [Compound I-109, N-(3-(5-methoxypyridin-2-yl)-1-methyl-1H-pyrazol-4-yl)-5-(1H-pyrazol-4-yl)furan-2-carboxamide] |
| 19.6 | 76.7 |  |  | CC(C)NC(=O)N1CC(n2cc(NC(=O)c3ccc(-c4cn[nH]c4)o3)c(-c3ccccn3)n2)C1 [Compound I-85, 3-[4-{5-(1H-Pyrazol-4-yl)furan-2-carboxamido}-3-(pyridine-2-yl)-1H-pyrazol-1-yl]-N-isopropylazetidine-1-carboxamide, free base] |
| 15.6 | 18 |  |  | CCCC(=O)N1CC(n2cc(NC(=O)c3ccc(-c4cn[nH]c4)o3)c(-c3ccccn3)n2)C1 [Compound I-99, N-[1-{1-Butyrylazetidin-3-yl}-3-(pyridine-2-yl)-1H-pyrazol-4-yl]-5-(1H-pyrazol-4-yl)furan-2-carboxamide, formate salt] |
| 10.6 | 12.2 |  |  | CC(C)(C)C(=O)N1CC(n2cc(NC(=O)c3ccc(-c4cn[nH]c4)o3)c(-c3ccccn3)n2)C1 [Compound I-91, N-[1-{1-Pivaloylazetidin-3-yl}-3-(pyridine-2-yl)-1H-pyrazol-4-yl]-5-(1H-pyrazol-4-yl)furan-2-carboxamide, formate salt] |
| 8 | 10.8 |  |  | O=C(Nc1cn(C2CN(C(=O)N3CCCC3)C2)nc1-c1ccccn1)c1ccc(-c2cn[nH]c2)o1 [Compound I-93, 5-(1H-Pyrazol-4-yl)-N-{3-(pyridine-2-yl)-1-(pyrrolidine-1-carbonyl)azetidin-3-yl}-1H-pyrazol-4-yl)furan-2-carboxamide, formate salt] |
